Laboratory results taken from DBAASP.
In brackets after ≈: the same amount, converted by molar mass.

Legend:
Test in all cases: ≥ marks a high value that may be exact or a test limit, other limits are often not marked, values filed in µg/mL are converted to µM
[1] = tested on: Pseudomonas aeruginosa Q14-0208
[2] = tested on: Acinetobacter baumannii Q13-0717
[3] = tested on: Staphylococcus aureus MRSA-15
[4] = tested on: Escherichia coli
[5] = tested on: Staphylococcus aureus ATCC 29213
[6] = tested on: Listeria monocytogenes NCTC 11994
[7] = tested on: Staphylococcus aureus Q14-0325
[8] = tested on: Acinetobacter baumannii
[9] = tested on: Acinetobacter baumannii Q12-0867
[10] = tested on: Pseudomonas aeruginosa Q14-0890
[11] = tested on: Acinetobacter baumannii Q12-0809
[12] = tested on: Klebsiella pneumoniae Q14-0146
[13] = tested on: Enterococcus faecalis JH-2-2
[14] = tested on: Klebsiella pneumoniae NCTC 13442
[15] = tested on: Campylobacter jejuni NCTC 11351
[16] = tested on: Klebsiella pneumoniae ATCC 700603
[17] = tested on: Campylobacter jejuni
[18] = tested on: Pseudomonas aeruginosa PAO1
[19] = tested on: Salmonella typhimurium SL1344
[20] = tested on: Staphylococcus aureus RN4220
[21] = tested on: Klebsiella pneumoniae Q14-0095
[22] = tested on: Staphylococcus aureus NCTC 12493
[23] = tested on: Escherichia coli K-12
[24] = tested on: Staphylococcus aureus Q14-0320
[25] = tested on: Pseudomonas aeruginosa ATCC 27853
[26] = tested on: Staphylococcus aureus
[27] = tested on: Staphylococcus aureus NCTC 8325-4
[28] = tested on: Pseudomonas aeruginosa PA-W1
[29] = tested on: Klebsiella pneumoniae
[30] = tested on: Bacillus cereus ATCC 14579
[31] = tested on: Cryptococcus neoformans ATCC 28957
[32] = tested on: Xanthomonas campestris pv. citri
[33] = tested on: Pectobacterium carotovorum
[34] = tested on: Candida albicans ATCC 90028
[35] = tested on: Trichoderma asperellum
[36] = tested on: Bacillus subtilis ATCC 23857
[37] = tested on: Fusarium oxysporum f.sp. vasinfectum
[38] = tested on: Pseudomonas syringae pv. tabaci
[39] = tested on: Staphylococcus aureus ATCC 25923
[40] = tested on: Escherichia coli ATCC 25922
[41] = tested on: Rhizoctonia solani
[42] = tested on: Fusarium oxysporum
[43] = tested on: Fusarium solani
[44] = tested on: Ramulariopsis gossypii
[45] = tested on: Staphylococcus epidermidis CGMCC 1.4260
[46] = tested on: Bacillus subtilis CGMCC 1.3376
[47] = tested on: Klebsiella pneumoniae CGMCC 1.1736
[48] = tested on: Pseudomonas aeruginosa CGMCC 1.2421
[49] = tested on: Staphylococcus aureus CGMCC 1.8721
[50] = tested on: Escherichia coli CGMCC 1.8732
[51] = tested on: Bacillus cereus JCM 2152
[52] = tested on: Staphylococcus aureus JCM 2874
[53] = tested on: Candida albicans JCM 2085

Compound `CSCC[C@H](NC(=O)[C@@H](N)[C@@H](C)O)C(=O)N[C@@H](CO)C(=O)N[C@@H](CC(C)C)C(=O)N[C@@H](CCCN=C(N)N)C(=O)N[C@@H](Cc1ccccc1)C(=O)N[C@@H](Cc1c[nH]c2ccccc12)C(=O)N[C@@H](CCCN=C(N)N)C(=O)N[C@@H](Cc1c[nH]c2ccccc12)C(=O)N[C@@H](CCCCN)C(=O)N[C@H](C(=O)N[C@@H](CCCN=C(N)N)C(=O)O)C(C)C` [TMSLRFWRWKVR] has an MIC [1] of at least 76.8 µM, an MIC [2] of 19.2 µM (≈ 32 µg/mL) and an MIC [3] of at least 38.4 µM. The MIC [4] was 76.8 µM (≈ 128 µg/mL), the MIC [5] was 76.8 µM (≈ 128 µg/mL) and the MIC [6] was at least 38.4 µM. It also gave an MIC [7] of at least 76.8 µM, an MIC [8] of at least 76.8 µM and an MIC [9] of 9.6 µM (≈ 16 µg/mL). For the same compound, the MIC [10] was at least 38.4 µM, the MIC [11] was at least 38.4 µM and the MIC [12] was at least 76.8 µM. It also gave an MIC [13] of at least 38.4 µM, an MIC [14] of at least 76.8 µM and an MIC [15] of at least 76.8 µM. The MIC [16] was over 76.8 µM, the MIC [17] was at least 76.8 µM and the MIC [18] was 38.4 µM (≈ 64 µg/mL). For the same compound, the MIC [19] was at least 38.4 µM, the MIC [20] was at least 38.4 µM and the MIC [21] was at least 76.8 µM. It also gave an MIC [22] of at least 38.4 µM, an MIC [23] of at least 38.4 µM and an MIC [24] of at least 76.8 µM. It also gave an MIC [25] of 76.8 µM (≈ 128 µg/mL).

With `CC(C)C[C@H](NC(=O)[C@H](CCCCN)NC(=O)[C@H](CCCCN)NC(=O)[C@H](CC(C)C)NC(=O)[C@H](CC(C)C)NC(=O)[C@H](CCCCN)NC(=O)[C@H](CCCCN)NC(=O)[C@H](CC(C)C)NC(=O)[C@H](CC(C)C)NC(=O)[C@H](CCCCN)NC(=O)[C@H](CCCCN)NC(=O)[C@@H](N)CC(C)C)C(N)=O` [LKKLLKKLLKKL] the MIC [26] was 62.5 µM (≈ 91.6 µg/mL), the MIC [27] was 15.6 µM (≈ 22.9 µg/mL) and the MIC [28] was 15.6 µM (≈ 22.9 µg/mL). For the same compound, the MIC [29] was 31.3 µM (≈ 45.9 µg/mL), the MIC [18] was 7.81 µM (≈ 11.4 µg/mL) and the MIC [23] was 7.81 µM (≈ 11.4 µg/mL).

`CC(C)C[C@H](NC(=O)[C@H](C)NC(=O)[C@H](CC(C)C)NC(=O)[C@@H](NC(=O)[C@H](C)NC(=O)[C@H](CCCCN)NC(=O)[C@H](CC(C)C)NC(=O)[C@H](CC(C)C)NC(=O)[C@@H](NC(=O)[C@H](Cc1cnc[nH]1)NC(=O)[C@@H](NC(=O)[C@H](CCCCN)NC(=O)[C@H](CO)NC(=O)[C@H](CC(C)C)NC(=O)[C@@H](NC(=O)[C@@H](N)CCCCN)C(C)C)C(C)C)[C@@H](C)O)C(C)C)C(N)=O` [KVLSKVHTLLKAVLAL] gave an MIC [30] of 3.33 µM (≈ 5.77 µg/mL), an MIC [31] of 4 µM (≈ 6.93 µg/mL) and an MIC [32] of 1 µM (≈ 1.73 µg/mL). The MIC [33] was 1 µM (≈ 1.73 µg/mL), the MIC [34] was 8 µM (≈ 13.9 µg/mL) and the MIC [35] was 16 µM (≈ 27.7 µg/mL). The MIC [36] was 1 µM (≈ 1.73 µg/mL), the MIC [37] was 4 µM (≈ 6.93 µg/mL) and the MIC [38] was 4 µM (≈ 6.93 µg/mL). The MIC [39] was 4 µM (≈ 6.93 µg/mL), the MIC [40] was 2 µM (≈ 3.46 µg/mL) and the MIC [41] was 16 µM (≈ 27.7 µg/mL). It also gave an MIC [42] of 4 µM (≈ 6.93 µg/mL), an MIC [43] of 16 µM (≈ 27.7 µg/mL) and an MIC [44] of 2 µM (≈ 3.46 µg/mL). It also gave an MIC [25] of 5.33 µM (≈ 9.23 µg/mL).

`CC[C@H](C)[C@H](NC(=O)[C@H](CO)NC(=O)CNC(=O)[C@@H](NC(=O)[C@@H](N)CCCN=C(N)N)[C@@H](C)CC)C(=O)N[C@@H](CC(C)C)C(=O)NCC(=O)N[C@@H](C)C(=O)N[C@@H](CC(C)C)C(=O)N[C@@H](C)C(=O)N[C@@H](CCCCN)C(=O)NCC(=O)N[C@@H](CC(C)C)C(=O)N1CCC[C@H]1C(=O)N[C@H](C(=O)N[C@@H](CC(C)C)C(=O)N[C@H](C(=O)N[C@@H](CO)C(=O)N[C@@H](Cc1c[nH]c2ccccc12)C(=O)N[C@H](C(=O)N[C@@H](CCCCN)C(=O)N[C@@H](CC(N)=O)C(=O)N[C@@H](CCCN=C(N)N)C(N)=O)[C@@H](C)CC)[C@@H](C)CC)[C@@H](C)O` [RIGSILGALAKGLPTLISWIKNR] gave an MIC [45] of 3.13 µM (≈ 7.75 µg/mL), an MIC [46] of 6.25 µM (≈ 15.5 µg/mL) and an MIC [47] of 12.5 µM (≈ 31 µg/mL). The MIC [48] was 6.25 µM (≈ 15.5 µg/mL), the MIC [49] was 6.25 µM (≈ 15.5 µg/mL) and the MIC [50] was 12.5 µM (≈ 31 µg/mL).

With `CC[C@H](C)[C@H](NC(=O)[C@H](CCCCN)NC(=O)[C@H](CO)NC(=O)[C@@H](NC(=O)[C@H](CC(C)C)NC(=O)[C@H](CO)NC(=O)[C@@H]1CCCN1C(=O)[C@H](CC(C)C)NC(=O)[C@H](Cc1ccccc1)NC(=O)[C@H](CC(N)=O)NC(=O)[C@H](C)NC(=O)[C@H](CC(C)C)NC(=O)[C@H](C)NC(=O)CNC(=O)[C@@H](NC(=O)[C@@H](NC(=O)[C@H](CO)NC(=O)CNC(=O)[C@H](Cc1ccccc1)NC(=O)[C@@H](N)Cc1ccccc1)[C@@H](C)O)[C@@H](C)CC)[C@@H](C)CC)C(=O)N[C@@H](CCCN=C(N)N)C(=O)N[C@@H](CC(N)=O)C(N)=O` [FFGSTIGALANFLPSLISKIRN] the MIC [51] was 6.76 µM (≈ 16 µg/mL), the MIC [52] was 27 µM (≈ 64 µg/mL) and the MIC [53] was 27 µM (≈ 64 µg/mL).
